Tests used:
Cbl-b [1] = biological target: T1, Cbl-b (Homo sapiens, UniProt Q13191); test: Cbl-b inhibition assay (Cbl-b activity assay, FRET, Biological Example 1; 100 mM NaCl, 60 nM Src kinase); format: biochemical; conditions: upper bound stated in text lists; read-out: IC50 values in the Cbl-b inhibition assay of Biological Example 1
In short: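 Inhibitor activity is measured as reduced terbium-to-fluorescein FRET between streptavidin-terbium on biotinylated Cbl-b and Bodipy-fluorescein ubiquitin carried by an irreversible UbcH5B-Ub conjugate, binding of which depends on Src phosphorylation of Cbl-b.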

T-cell [2] = test: IL-2 secretion from T-cells co-stimulated with anti-CD3 and anti-CD28 antibody (Biological Example 2); format: cell-based, human; conditions: Homo sapiens, T-cell, fold change over baseline, primary human total T-cells, read-out: IL-2 secretion Anti-CD3/Anti-CD28 stimulation; for fold induction at 0.3 µM: 0.3 μM Cbl-b inhibitor; for fold induction at 1 µM: 1 μM Cbl-b inhibitor; for fold induction at 4 µM: 4 μM Cbl-b inhibitor
Description: (§1) Methods for experimentally determining increased T-cell activation, increased T-cell proliferation, decreased T-cell exhaustion, and/or decreased T-cell tolerance are well known in the art.
(§2) Modulation of activity of an immune cell, such as a T-cell, a B cell or a NK cell can be measured by determining a baseline value for a parameter of interest (e.g., cytokine secretion). […] A reference value then is obtained for T-cell activation after contacting or administering said Cbl-b inhibitor. The reference value is compared to the baseline value in order to determine the amount of T-cell activation due to contact or administration of the Cbl-b inhibitor or composition thereof. […] Immune cell activation can be assessed by measuring biological markers of activation such as increased cytokine secretion, increased cell surface expression of activation markers (e.g., cell surface markers), or increased phosphorylation of proteins in a downstream signaling pathway. The fold over baseline value that indicates immune cell activation can be determined for the parameter being tested and the conditions under which the immune cell were treated. For example, for measuring T-cell activation, a baseline value can be obtained from T-cells stimulated with anti-CD3 antibody in combination with anti-CD28 antibody, wherein the cells are not incubated with a Cbl-b inhibitor. […] A positive response for immune cell activation can then be determined by the obtained reference value. […]

T-cell [3] = test: IL-2 secretion from T-cells stimulated with anti-CD3 antibody alone (Biological Example 2); format: cell-based, human; conditions: T-cell, fold change over baseline, primary human total T-cells, read-out: IL-2 secretion Anti-CD3 stimulation; for fold induction at 1 µM: 1 μM Cbl-b inhibitor; for fold induction at 8 µM: 8 μM Cbl-b inhibitor
Description: as §1
(§3) Modulation of activity of an immune cell, such as a T-cell, a B cell or a NK cell can be measured by determining a baseline value for a parameter of interest (e.g., cytokine secretion). […] A reference value then is obtained for T-cell activation after contacting or administering said Cbl-b inhibitor. The reference value is compared to the baseline value in order to determine the amount of T-cell activation due to contact or administration of the Cbl-b inhibitor or composition thereof. […] Immune cell activation can be assessed by measuring biological markers of activation such as increased cytokine secretion, increased cell surface expression of activation markers (e.g., cell surface markers), or increased phosphorylation of proteins in a downstream signaling pathway. The fold over baseline value that indicates immune cell activation can be determined for the parameter being tested and the conditions under which the immune cell were treated. For example, for measuring T-cell activation, a baseline value can be obtained from T-cells stimulated with anti-CD3 antibody in combination with anti-CD28 antibody, wherein the cells are not incubated with a Cbl-b inhibitor. […] A positive response for immune cell activation can then be determined by the obtained reference value.
(§4) In some embodiments, a baseline value can be obtained from T-cells stimulated with anti-CD3 antibody alone, wherein the cells are not incubated with a Cbl-b inhibitor. In some embodiments, a positive response for T-cell activation as measured by cytokine secretion (e.g., IL-2 secretion) by T-cells stimulated with anti-CD3 antibody alone in the presence of a Cbl-b inhibitor is at least 0.1-fold over the baseline value for cytokine secretion (e.g., IL-2 secretion) obtained from T-cells stimulated with anti-CD3 antibody alone in the absence of a Cbl-b inhibitor. In some embodiments, a positive response for T-cell activation as measured by surface marker expression (e.g., CD25 surface marker staining) by T-cells stimulated with anti-CD3 antibody alone in the presence of a Cbl-b inhibitor is at least 0.6-fold over the baseline value for surface marker expression (e.g., CD25 surface marker staining) obtained from T-cells stimulated with anti-CD3 antibody alone in the absence of a Cbl-b inhibitor.

T-cell [4] = test: CD25 cell surface staining on T-cells co-stimulated with anti-CD3 and anti-CD28 antibody (Biological Example 2); format: cell-based, human; conditions: Homo sapiens, T-cell, fold change over baseline, primary human total T-cells, read-out: CD25 staining Anti-CD3/Anti-CD28 stimulation; for fold induction at 0.3 µM: 0.3 μM Cbl-b inhibitor; for fold induction at 1 µM: 1 μM Cbl-b inhibitor; for fold induction at 4 µM: 4 μM Cbl-b inhibitor
Description: as §1, §2

T-cell [5] = test: CD25 cell surface staining on T-cells stimulated with anti-CD3 antibody alone (Biological Example 2); format: cell-based, human; conditions: T-cell, fold change over baseline, primary human total T-cells, read-out: CD25 staining Anti-CD3 stimulation; for fold induction at 1 µM: 1 μM Cbl-b inhibitor; for fold induction at 8 µM: 8 μM Cbl-b inhibitor
Description: as §1, §3, §4

Cbl-b [6] = biological target: T1, Cbl-b; test: Cbl-b activity assay (Cbl-b inhibition assay), TR-FRET of Cbl-b interaction with UbcH5B-Ub; format: biochemical; conditions: assay buffer with 100 mM NaCl, 60 nM Src kinase; read-out: Cbl-b activity IC50
In short: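 UbcH5B (C85K) conjugated to N-terminally Bodipy-Fluorescein-labeled ubiquitin served as the fluorescent partner. After compound preincubation, Src kinase (60 nM) with 1 mM ATP and 5 mM MgCl2 (final) was added for 1.5 h, followed by a further 1 h incubation. Some values were obtained with 50 mM NaCl and 30 nM Src.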

T1 sequence (Q13191 36-427): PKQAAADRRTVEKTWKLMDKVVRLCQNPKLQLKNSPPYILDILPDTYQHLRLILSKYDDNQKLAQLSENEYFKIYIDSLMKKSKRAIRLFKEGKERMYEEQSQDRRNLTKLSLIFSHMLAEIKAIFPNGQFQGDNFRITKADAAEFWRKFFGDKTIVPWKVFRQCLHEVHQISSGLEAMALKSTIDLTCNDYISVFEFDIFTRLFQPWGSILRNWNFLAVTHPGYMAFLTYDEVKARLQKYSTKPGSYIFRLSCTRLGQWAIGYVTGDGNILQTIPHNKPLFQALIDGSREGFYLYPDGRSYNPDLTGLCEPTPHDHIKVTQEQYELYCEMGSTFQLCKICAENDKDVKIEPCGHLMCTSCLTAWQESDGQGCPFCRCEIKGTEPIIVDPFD

| Structure (SMILES) | IC50 (Cbl-b [1]) [µM] | fold induction at 0.3 µM (T-cell [2]) | fold induction at 1 µM (T-cell [2]) | fold induction at 4 µM (T-cell [2]) | fold induction at 1 µM (T-cell [3]) | fold induction at 8 µM (T-cell [3]) | fold induction at 0.3 µM (T-cell [4]) | fold induction at 1 µM (T-cell [4]) | fold induction at 4 µM (T-cell [4]) | fold induction at 1 µM (T-cell [5]) | fold induction at 8 µM (T-cell [5]) | IC50 (Cbl-b [6]) [µM] |
| --- | --- | --- | --- | --- | --- | --- | --- | --- | --- | --- | --- | --- |
| Cn1cnnc1[C@H]1CC[C@H]1c1cccc(N2Cc3c(cccc3C(F)(F)F)C2=O)c1 (racemic) [Compound 283, cis-2-(3-(2-(4-Methyl-4H-1,2,4-triazol-3-yl)cyclobutyl)phenyl)-4-(trifluoromethyl)isoindolin-1-one] | ≤ 1 | < 1 | 1.01 to 2.5 | 1.01 to 2.5 | < 0.05 | 0.101 to 0.15 | < 1 | < 1 | 1.01 to 1.3 | < 0.6 | < 0.6 | 0.301 to 1 |
| C[C@@H](c1cccc(N2Cc3c(cccc3C(F)(F)F)C2=O)c1)[C@@H](O)c1nncn1C (racemic) [Compound 292, cis-2-(3-(1-Hydroxy-1-(4-methyl-4H-1,2,4-triazol-3-yl)propan-2-yl)phenyl)-4-(trifluoromethyl)isoindolin-1-one] | ≤ 10 | 2.51 to 5 | 1.01 to 2.5 | 1.01 to 2.5 | < 0.05 | < 0.05 | 1.01 to 1.3 | < 1 | 1.01 to 1.3 | < 0.6 | < 0.6 | 1 to 3 |
| CC(Sc1nncn1C)c1cccc(NC(=O)c2ccc3ccccc3n2)c1 (stereo not shown) [Compound 9, N-(3-(1-((4-Methyl-4H-1,2,4-triazol-3-yl)thio)ethyl)phenyl)quinoline-2-carboxamide] | ≤ 1 | 1.01 to 2.5 | 1.01 to 2.5 | 2.51 to 5 | < 0.05 | 0.051 to 0.1 | < 1 | < 1 | 1.01 to 1.3 | < 0.6 | 0.601 to 0.8 | – |
| C[C@H](Sc1nncn1C)c1cccc(NC(=O)c2ccc3ccccc3n2)c1 [Compound 9a] | ≤ 0.5 | 1.01 to 2.5 | 1.01 to 2.5 | 1.01 to 2.5 | < 0.05 | 0.051 to 0.1 | 1.01 to 1.3 | 1.01 to 1.3 | 1.01 to 1.3 | 0.601 to 0.8 | 0.601 to 0.8 | – |
| C[C@H](Cc1nncn1C)c1cccc(NC(=O)c2cn3ccnc3cn2)c1 [Compound 318, (R)-N-(3-(1-(4-Methyl-4H-1,2,4-triazol-3-yl)propan-2-yl)phenyl)imidazo[1,2-a]pyrazine-6-carboxamide] | – | 1.01 to 2.5 | 1.01 to 2.5 | 1.01 to 2.5 | 0.051 to 0.1 | 0.101 to 0.15 | < 1 | 1.01 to 1.3 | 1.01 to 1.3 | 0.601 to 0.8 | 0.801 to 1 | 0.301 to 1 |
| C[C@@H](Cc1nncn1C)c1cccc(NC(=O)c2cc(C3CC3)cc(C(F)(F)F)n2)c1 [Compound 322, (S)-4-Cyclopropyl-N-(3-(1-(4-methyl-4H-1,2,4-triazol-3-yl)propan-2-yl)phenyl)-6-(trifluoromethyl)picolinamide] | – | 1.01 to 2.5 | 1.01 to 2.5 | 1.01 to 2.5 | 0.051 to 0.1 | 0.101 to 0.15 | 1.01 to 1.3 | 1.01 to 1.3 | 1.01 to 1.3 | 0.601 to 0.8 | 0.601 to 0.8 | 0.301 to 1 |
| C[C@H](Cc1nncn1C)c1cccc(NC(=O)c2cnn3cccnc23)c1 [Compound 324, (R)-N-(3-(1-(4-Methyl-4H-1,2,4-triazol-3-yl)propan-2-yl)phenyl)pyrazolo[1,5-a]pyrimidine-3-carboxamide] | – | 1.01 to 2.5 | 1.01 to 2.5 | 1.01 to 2.5 | 0.051 to 0.1 | 0.051 to 0.1 | < 1 | < 1 | 1.01 to 1.3 | 0.601 to 0.8 | 0.601 to 0.8 | 0.301 to 1 |
| C[C@H](Cc1nncn1C)c1cc(NC2COC2)cc(N2Cc3c(cccc3C(F)(F)F)C2=O)c1 [Compound 350, 2-{3-[(2R)-1-(4-methyl-4H-1,2,4-triazol-3-yl)propan-2-yl]-5-[(oxetan-3-yl)amino]phenyl}-4-(trifluoromethyl)-2,3-dihydro-1H-isoindol-1-one] | – | < 1 | 1.01 to 2.5 | 1.01 to 2.5 | 0.051 to 0.1 | 0.051 to 0.1 | 1.01 to 1.3 | 1.01 to 1.3 | 1.01 to 1.3 | 0.601 to 0.8 | 0.801 to 1 | 0.301 to 1 |
| CC1OCC1Oc1cc([C@H](C)Cc2nncn2C)cc(N2Cc3c(cccc3C(F)(F)F)C2=O)n1 (stereo partly drawn) [Compound 355, 2-(4-((R)-1-(4-methyl-4H-1,2,4-triazol-3-yl)propan-2-yl)-6-((2-methyloxetan-3-yl)oxy)pyridin-2-yl)-4-(trifluoromethyl)isoindolin-1-one] | – | 1.01 to 2.5 | 1.01 to 2.5 | 1.01 to 2.5 | 0.051 to 0.1 | 0.101 to 0.15 | 1.01 to 1.3 | 1.01 to 1.3 | 1.01 to 1.3 | 0.601 to 0.8 | 0.601 to 0.8 | 0.301 to 1 |
| C[C@H](Cc1nncn1C)c1cc(OCCO)nc(N2Cc3c(cccc3C(F)(F)F)C2=O)c1 [Compound 359, (R)-2-(6-(2-hydroxyethoxy)-4-(1-(4-methyl-4H-1,2,4-triazol-3-yl)propan-2-yl)pyridin-2-yl)-4-(trifluoromethyl)isoindolin-1-one] | – | 1.01 to 2.5 | 1.01 to 2.5 | 2.51 to 5 | 0.051 to 0.1 | > 0.201 | 1.01 to 1.3 | 1.01 to 1.3 | 1.31 to 1.5 | 0.601 to 0.8 | > 1 | 0.301 to 1 |

From US20220324835A1 (Nurix Therapeutics, Inc., priority 2018, published 2022)
